Experimental data reported in patent US20250171462A1 (NICO Therapeutics, Inc., priority 2022, published 2025).
Like-named read-outs stand apart in the source and are kept apart here.

Molecular target: T1, full-length SARM1 (FL-SARM1) (Homo sapiens, UniProt Q6SZW1)
T1 sequence (Q6SZW1 28-724): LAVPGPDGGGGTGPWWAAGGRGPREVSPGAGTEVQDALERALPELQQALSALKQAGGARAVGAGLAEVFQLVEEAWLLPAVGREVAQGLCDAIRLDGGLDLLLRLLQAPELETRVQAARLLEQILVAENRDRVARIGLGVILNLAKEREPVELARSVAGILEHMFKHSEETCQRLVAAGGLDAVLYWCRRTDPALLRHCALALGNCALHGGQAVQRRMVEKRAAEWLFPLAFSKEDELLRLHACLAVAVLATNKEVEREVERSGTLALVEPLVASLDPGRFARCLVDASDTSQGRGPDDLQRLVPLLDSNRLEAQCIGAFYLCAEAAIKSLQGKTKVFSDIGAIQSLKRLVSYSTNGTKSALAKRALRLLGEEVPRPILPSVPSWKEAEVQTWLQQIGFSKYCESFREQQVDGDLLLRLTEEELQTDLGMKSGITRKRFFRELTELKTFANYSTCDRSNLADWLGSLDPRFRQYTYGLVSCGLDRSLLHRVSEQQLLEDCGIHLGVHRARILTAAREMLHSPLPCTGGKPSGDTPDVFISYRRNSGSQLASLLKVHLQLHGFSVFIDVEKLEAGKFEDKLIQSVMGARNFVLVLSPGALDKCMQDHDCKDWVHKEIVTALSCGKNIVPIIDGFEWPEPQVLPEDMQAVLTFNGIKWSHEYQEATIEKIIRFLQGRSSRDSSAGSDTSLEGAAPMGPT
Experiment: FL-SARM1 cellular lysate assay (NAD/NADH-Glo detection of remaining NAD+, NMN-activated)

[1] = Activity (μM) (IC50), 11 point curve
[2] = read-out: Activity (IC50 class), 11 point curve
[3] = Activity (IC50 class), 11 point curve

Cc1ccc(NC(=O)N2C3CCCC2C3)cc1-c1nccc(C#N)n1 [Example 67, N-(3-(4-cyanopyrimidin-2-yl)-4-methyl-phenyl)-6-azabicyclo[3.1.1]heptane-6-carboxamide]
IC50 [1]: 0.6 µM
IC50 [2]: 0.0001 to 1 µM

Cc1ccc(NC(=O)N2C3CCCC2C3)cc1-c1nccc(C(F)(F)F)n1 [Example 68, N-(4-methyl-3-(4-(trifluoromethyl)pyrimidin-2-yl)phenyl)-6-azabicyclo[3.1.1]heptane-6-carboxamide]
IC50 [3]: 1 to 10 µM
IC50 [1]: 4.7 µM

Cc1c(F)cc(NC(=O)N2C3CCCC2C3)cc1-c1ccccn1 [Example 69, N-(3-fluoro-4-methyl-5-(pyridin-2-yl)phenyl)-6-azabicyclo[3.1.1]heptane-6-carboxamide]
IC50 [1]: 0.08 µM
IC50 [2]: 0.0001 to 1 µM

Cc1cc(NC(=O)N2C3CCCC2C3)cc(-c2ccccn2)c1C [Example 71, N-(3,4-dimethyl-5-(pyridin-2-yl)phenyl)-6-azabicyclo[3.1.1]heptane-6-carboxamide]
IC50 [3]: > 10 µM
IC50 [1]: 10.9 µM

Cc1ccc(NC(=O)N2C3CC2CN(c2ncccn2)C3)cc1-c1ccccn1 [Example 72, N-(4-methyl-3-(pyridin-2-yl)phenyl)-3-(pyrimidin-2-yl)-3,6-diazabicyclo[3.1.1]heptane-6-carboxamide]
IC50 [3]: 1 to 10 µM
IC50 [1]: 1.2 µM

Cc1ccc(NC(=O)C2C3CCC2CC3)cc1-c1ccccn1 (stereo not shown) [Example 73, N-(4-methyl-3-(pyridin-2-yl)phenyl)bicyclo[2.2.1]heptane-7-carboxamide]
IC50 [1]: 0.09 µM
IC50 [2]: 0.0001 to 1 µM

Cc1ccc(NC(=O)N2C3C[C@H](C#N)C[C@@H]2C3)cc1-c1ccccn1 [Example 74, cis-3-cyano-N-(4-methyl-3-(pyridin-2-yl)phenyl)-6-azabicyclo[3.1.1]heptane-6-carboxamide]
IC50 [1]: 0.3 µM
IC50 [2]: 0.0001 to 1 µM

Cc1ccc(NC(=O)N2C3C[C@@H](C#N)C[C@@H]2C3)cc1-c1ccccn1 [Example 75, trans-3-cyano-N-(4-methyl-3-(pyridin-2-yl)phenyl)-6-azabicyclo[3.1.1]heptane-6-carboxamide]
IC50 [1]: 0.4 µM
IC50 [2]: 0.0001 to 1 µM

Cc1cc(C)c(-c2ccccn2)cc1NC(=O)N1C2CCCC1C2 [Example 76, N-(2,4-dimethyl-5-(pyridin-2-yl)phenyl)-6-azabicyclo[3.1.1]heptane-6-carboxamide]
IC50 [3]: 1 to 10 µM
IC50 [1]: 6.8 µM

Cc1c(Cl)cc(NC(=O)N2C3CCCC2C3)cc1-c1ccccn1 [Example 77, N-(3-chloro-4-methyl-5-(pyridin-2-yl)phenyl)-6-azabicyclo[3.1.1]heptane-6-carboxamide]
IC50 [1]: 0.8 µM
IC50 [2]: 0.0001 to 1 µM

Cc1c(Br)cc(NC(=O)N2C3CCCC2C3)cc1-c1ccccn1 [Example 78, N-(3-bromo-4-methyl-5-(pyridin-2-yl)phenyl)-6-azabicyclo[3.1.1]heptane-6-carboxamide]
IC50 [1]: 0.7 µM
IC50 [2]: 0.0001 to 1 µM

CCO[C@H]1CC2C[C@H](C1)N2C(=O)Nc1ccc(C)c(-c2ccccn2)c1 [Example 79, trans-3-ethoxy-N-(4-methyl-3-(pyridin-2-yl)phenyl)-6-azabicyclo[3.1.1]heptane-6-carboxamide]
IC50 [3]: 1 to 10 µM
IC50 [1]: 2.8 µM

Cc1ccc(NC(=O)N2C3CC2c2ncnn2C3)cc1-c1ccccn1 (stereo not shown) [Example 80, N-(4-methyl-3-pyridin-2-ylphenyl)-3,5,6,9-tetrazatricyclo[6.1.1.02,6]deca-2,4-diene-9-carboxamide]
IC50 [3]: > 10 µM
IC50 [1]: 13 µM

Cc1cc(F)cnc1-c1cccc(NC(=O)N2C3CCCC2C3)c1 [Example 81, N-[3-(5-fluoro-3-methylpyridin-2-yl)phenyl]-6-azabicyclo[3.1.1]heptane-6-carboxamide]
IC50 [3]: 1 to 10 µM
IC50 [1]: 3.4 µM

Cc1cc(Cl)c(NC(=O)N2C3CCCC2C3)cc1-c1ccccn1 [Example 82, N-(2-chloro-4-methyl-5-pyridin-2-ylphenyl)-6-azabicyclo[3.1.1]heptane-6-carboxamide]
IC50 [3]: 1 to 10 µM
IC50 [1]: 1.5 µM

Cc1c(C#N)cc(NC(=O)N2C3CCCC2C3)cc1-c1ccccn1 [Example 83, N-(3-cyano-4-methyl-5-pyridin-2-ylphenyl)-6-azabicyclo[3.1.1]heptane-6-carboxamide]
IC50 [3]: > 10 µM
IC50 [1]: 35 µM

CCO[C@@H]1CC2C[C@H](C1)N2C(=O)Nc1ccc(C)c(-c2ccccn2)c1 [Example 84, cis-3-ethoxy-N-(4-methyl-3-(pyridin-2-yl)phenyl)-6-azabicyclo[3.1.1]heptane-6-carboxamide]
IC50 [3]: 1 to 10 µM
IC50 [1]: 1.6 µM

Cc1ccc(NC(=O)N2C3CC2CN(c2ccn(C)n2)C3)cc1-c1ccccn1 [Example 85, 3-(1-methylpyrazol-3-yl)-N-(4-methyl-3-pyridin-2-ylphenyl)-3,6-diazabicyclo[3.1.1]heptane-6-carboxamide]
IC50 [3]: > 10 µM
IC50 [1]: 23 µM

Cc1ccc(NC(=O)N2CC3CC3(c3ccccc3)C2)cc1-c1ccccn1 (stereo not shown) [Example 94, N-(4-methyl-3-pyridin-2-ylphenyl)-1-phenyl-3-azabicyclo[3.1.0]hexane-3-carboxamide]
IC50 [3]: > 10 µM
IC50 [1]: 15 µM

Cc1ccc(NC(=O)N2CCC[C@@H]2c2ccccc2)cc1-c1ccccn1 [Example 95, (2R)-N-(4-methyl-3-pyridin-2-ylphenyl)-2-phenylpyrrolidine-1-carboxamide]
IC50 [3]: 1 to 10 µM
IC50 [1]: 1.4 µM

Cc1ccc(NC(=O)N2CCC[C@H]2c2ccccc2)cc1-c1ccccn1 [Example 96, (2S)-N-(4-methyl-3-pyridin-2-ylphenyl)-2-phenylpyrrolidine-1-carboxamide]
IC50 [1]: 0.7 µM
IC50 [2]: 0.0001 to 1 µM

Cc1ccc(NC(=O)N2CC3CC3(C(F)(F)F)C2)cc1-c1ccccn1 (stereo not shown) [Example 97, N-(4-methyl-3-pyridin-2-ylphenyl)-1-(trifluoromethyl)-3-azabicyclo[3.1.0]hexane-3-carboxamide]
IC50 [3]: > 10 µM
IC50 [1]: 11 µM

Cc1ccc(NC(=O)N2CCCC3CC32)cc1-c1ccccn1 (stereo not shown) [Example 99, N-(4-methyl-3-pyridin-2-ylphenyl)-2-azabicyclo[4.1.0]heptane-2-carboxamide]
IC50 [3]: > 10 µM
IC50 [1]: 18 µM

Cc1ccc(NC(=O)N2C3CCC2c2ncccc23)cc1-c1ccccn1 (stereo not shown) [Example 100, N-(4-methyl-3-pyridin-2-ylphenyl)-3,11-diazatricyclo[6.2.1.02,7]undeca-2,4,6-triene-11-carboxamide]
IC50 [1]: 0.6 µM
IC50 [2]: 0.0001 to 1 µM

Cc1ccc(NC(=O)N2CCc3ccccc3C2)cc1-c1ccccn1 [Example 101, N-(4-methyl-3-pyridin-2-ylphenyl)-3,4-dihydro-1H-isoquinoline-2-carboxamide]
IC50 [3]: 1 to 10 µM
IC50 [1]: 10 µM

Cc1ccc(NC(=O)N2CCOc3ccccc3C2)cc1-c1ccccn1 [Example 102, N-(4-methyl-3-pyridin-2-ylphenyl)-3,5-dihydro-2H-1,4-benzoxazepine-4-carboxamide]
IC50 [1]: 0.9 µM
IC50 [2]: 0.0001 to 1 µM

Cc1ccc(NC(=O)C2C3CCC2CC3)cc1-c1cccnn1 (stereo not shown) [Example 103, N-(4-methyl-3-pyridazin-3-ylphenyl)bicyclo[2.2.1]heptane-7-carboxamide]
IC50 [1]: 0.5 µM
IC50 [2]: 0.0001 to 1 µM

Cc1ccc(NC(=O)C2C3CCC2CC3)cc1-c1ncccn1 (stereo not shown) [Example 106, N-(4-methyl-3-pyrimidin-2-ylphenyl)bicyclo[2.2.1]heptane-7-carboxamide]
IC50 [3]: 1 to 10 µM
IC50 [1]: 1 µM

Cc1ccc(NC(=O)C2CCC2C)cc1-c1ccccn1 (stereo not shown) [Example 112, 2-methyl-N-(4-methyl-3-pyridin-2-ylphenyl)cyclobutane-1-carboxamide]
IC50 [3]: 1 to 10 µM
IC50 [1]: 1.7 µM

Cc1ccc(NC(=O)C2CCCC2C)cc1-c1ccccn1 (stereo not shown) [Example 114, 2-methyl-N-(4-methyl-3-pyridin-2-ylphenyl)cyclopentane-1-carboxamide]
IC50 [1]: 0.7 µM
IC50 [2]: 0.0001 to 1 µM

Cc1ccc(NC(=O)C2(O)CCCC2)cc1-c1ccccn1 [Example 115, 1-hydroxy-N-(4-methyl-3-pyridin-2-ylphenyl)cyclopentane-1-carboxamide]
IC50 [3]: > 10 µM
IC50 [1]: 36 µM

Cc1ccc(NC(=O)C2C[C@H]3C[C@@H]23)cc1-c1ccccn1 (stereo partly drawn) [Example 117, cis-N-(4-methyl-3-pyridin-2-ylphenyl)bicyclo[2.1.0]pentane-2-carboxamide]
IC50 [3]: 1 to 10 µM
IC50 [1]: 4.6 µM

Cc1ccc(NC(=O)C2CC3(CC3)C2)cc1-c1ccccn1 [Example 119, N-(4-methyl-3-pyridin-2-ylphenyl)spiro[2.3]hexane-5-carboxamide]
IC50 [3]: 1 to 10 µM
IC50 [1]: 1.9 µM

Cc1ccc(NC(=O)C2C3CCC2C3)cc1-c1ccccn1 (stereo not shown) [Example 123, N-(4-methyl-3-pyridin-2-ylphenyl)bicyclo[2.1.1]hexane-5-carboxamide]
IC50 [1]: 0.3 µM
IC50 [2]: 0.0001 to 1 µM

O=C(Nc1ccc(C(F)(F)F)c(-c2ccc(F)cn2)c1)[C@@H]1CC1(F)F [Example 125, (1S)-2,2-difluoro-N-[3-(5-fluoropyridin-2-yl)-4-(trifluoromethyl)phenyl]cyclopro-pane-1-carboxamide]
IC50 [3]: 1 to 10 µM
IC50 [1]: 3.5 µM
